Source: the METLIN SMRT retention time set (Domingo-Almenara et al. 2019)

assay: gradient 5% acetonitrile 3 min, to 50% in 2 min, to 85% in 15 min, held 3 min, 100 µL/min; conditions: column: Zorbax Extend-C18 2.1 x 50 mm; eluents: water / acetonitrile, 0.1% formic acid
Summary of the method: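 The mobile phases were water and acetonitrile, each with 0.1% formic acid, pumped at 100 μL/min through a Zorbax Extend-C18 column (2.1 × 50 mm, 1.8 μm). Pure standards were injected as mixtures of ~100 molecules and detected by a quadrupole time-of-flight mass spectrometer in positive and negative ionization mode. Retention time came from computationally picked adduct peaks, each inspected by hand.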

| Compound | RP-LC retention time |
| --- | --- |
| Cc1nnc(N2CCCC(C(=O)NC3CCCCCC3)C2)c2nn(-c3ccc(Cl)cc3)c(C)c12 (configuration not stated) | 831 s |
| COc1cccc(CN2CCc3nc(N4CCN(c5ccccc5)CC4)ncc3C2)c1OC | 762 s |
| CCOc1ccc(/C=C/C(=O)Nc2nc(-c3ccc4c(c3)NC(=O)C(C)O4)c(C)s2)cc1OC (configuration not stated) | 980 s |
| Cc1nc(-c2noc(-c3ccncc3)n2)cn1CC(=O)NCc1ccc(F)cc1 | 885 s |
| CCC(=O)N1CCCc2ccc(NC(=O)c3cccs3)cc21 | 827 s |
| CCSc1nnc(-c2nn(C)c3c2CN(C(=O)c2cccc(F)c2)CC3)n1C | 744 s |
| O=C1NCCCCCCN(C(=O)c2cnccn2)[C@H]2CCC[C@@H]12 | 632 s |
| COC(=O)c1ccccc1Nc1c(-c2ccc(OC)c(OC)c2)nc2cnccn12 | 732 s |
| Cc1oc(C2CCN(S(=O)(=O)CCc3ccccc3)CC2)nc1C(=O)N1CCCCC1 | 943 s |
| Cn1nc2n(c1=O)CCC(NC(=O)c1cc(C3CC3)[nH]n1)CC2 (configuration not stated) | 586 s |
| CCCc1noc(CN2N=C(C(=O)N3CCC(C)CC3)S(=O)(=O)c3ccc(C)cc32)n1 | 1010 s |
| CCc1ccc(S(=O)(=O)N2C[C@@H](F)C[C@H]2C(=O)N2CCOCC2)cc1 | 745 s |
| Cc1ccc(-c2nc(C3CC(=O)N(c4ccc(F)cc4)C3)no2)c(C)c1 (configuration not stated) | 1120 s |
| Cc1cc(C)n(Cc2nc(-c3ccc(NC(=O)Cc4cccc(F)c4)cc3)oc2C)n1 | 930 s |
| CCS(=O)(=O)c1nc2ccc(NS(=O)(=O)c3ccccc3F)cc2s1 | 835 s |
| CC(C)c1ccc(-c2csc(NC(=O)c3ccncc3)n2)cc1 | 989 s |
| CCc1ccc(OCC(O)Cn2c(C3CC3)nc3ccccc32)cc1 (configuration not stated) | 739 s |
| Cc1oc2ncnc(N3CCCC(C(=O)NCc4ccccc4Cl)C3)c2c1C (configuration not stated) | 892 s |
| Cc1ccc(F)cc1NS(=O)(=O)c1c[nH]c2ncccc12 | 747 s |
| Cc1cnc(C(=O)N2CCC(c3noc(-c4ccccn4)n3)C2)cn1 (configuration not stated) | 628 s |
| CCc1nc(-c2csc(S(=O)(=O)N3CCCC(C(=O)Nc4ccc(C)cn4)C3)c2)no1 (configuration not stated) | 831 s |
| Brc1ccc(Nc2nc(-c3ccc4c(c3)OCO4)cs2)nc1 | 1150 s |

| Compound | RP-LC retention time |
| --- | --- |
| Cn1ncc2c3ccccc3n(CC(=O)NCc3ccc4c(c3)OCO4)c2c1=O | 792 s |
| COc1ccc(-c2ncccc2CNS(=O)(=O)c2ccc(C#N)cc2)cc1 | 673 s |
| Cc1cccc(C(=O)N2CCCC2c2cc(C(C)C)on2)c1 (configuration not stated) | 948 s |
| CCN1C(=O)COc2ccc(-c3csc(NC(=O)c4cccc(OC)c4)n3)cc21 | 967 s |
| COCc1nc2nccc(-c3ccc(OC)cc3F)n2n1 | 711 s |
| O=C(Nc1ccc2c(c1)N(S(=O)(=O)c1ccc(F)cc1)CCC2)C1CC1 | 852 s |
| Cc1ccc(C2=NC3(CCN(C(=O)c4ccccc4C)CC3)ON2)cc1 | 855 s |
| CCOc1ccc(-n2c(=O)c3sccc3n(Cc3nc(-c4cccc(OCC)c4)no3)c2=O)cc1 | 1080 s |
| CN(C)S(=O)(=O)c1ccc2c(c1)N(CC(=O)N1CCCCC1)C(=O)C1CCCCN21 (configuration not stated) | 812 s |
| COc1cc(NS(=O)(=O)c2cc3n(c2)CCCN(C)C3=O)cc(OC)c1 | 672 s |
| Cc1nc(-c2ccc3c(c2)CCN3C(=O)COc2ccc(Cl)cc2)no1 | 976 s |
| CS(=O)(=O)N1CCCC1C(=O)Nc1nc(-c2cc(Cl)sc2Cl)cs1 (configuration not stated) | 993 s |
| O=C(c1ccc2ccnc(N3CCN(c4ccc(F)cc4)CC3)c2c1)N1CCN(c2ncccn2)CC1 | 749 s |
| CC1(C(=O)NC2CCN(c3cc(N4CCOCC4)cnn3)C2)CCCCC1 (configuration not stated) | 569 s |
| Cc1ccccc1Nc1c(-c2cc(Br)ccc2F)nc2c(C)cccn12 | 843 s |
| CC(C)(C)c1csc(-c2csc(S(=O)(=O)Nc3ccccc3F)c2)n1 | 1120 s |
| CCOC(=O)C1CCN(C(=O)c2cc(=O)c(OCc3ccc(F)cc3)cn2C)CC1 | 750 s |
| Cc1cc(-c2nc(-c3ccc(OC(F)(F)F)cc3)no2)nn1Cc1ccnc(N2CCN(C3CC3)CC2)c1 | 957 s |
| CN(C)c1cccc(C(=O)N2CCN(S(=O)(=O)C3CC3)CC2)c1 | 630 s |
| Cc1ccccc1-c1noc(Cn2nc(-c3ccccc3F)ccc2=O)n1 | 986 s |
| CN1C(=O)c2cc(S(=O)(=O)NCc3ccc(F)cc3)ccc2Oc2cccnc21 | 951 s |
| O=C(CC1CCN(C(=O)NC2CCCC2)CC1)N1CCCCC1 | 695 s |

| Compound | RP-LC retention time |
| --- | --- |
| CCN(CC)C(=O)C1c2cc(OC)c(OC)cc2C(=O)N(C)C1c1ccc(OC)c(OC)c1 (configuration not stated) | 706 s |
| O=C(NCc1cccs1)c1ccc(Cn2ccnc2)cc1 | 809 s |
| COc1ccc(Cl)cc1NC(=O)c1cnc2c(c1)c(=O)n(C)c(=O)n2-c1ccccc1 | 1010 s |
| Cc1cc(C)n(CC(=O)N2CCC[C@H]2c2nc(-c3ccccc3)n[nH]2)n1 | 641 s |
| Cc1ccc(-c2noc(Cn3c(=O)n(Cc4ccc5c(c4)OCO5)c(=O)c4sccc43)n2)cc1C | 1180 s |
| Cc1ccc2c(c1)N(Cc1ccccc1)N=C(C(=O)N1CCOCC1)S2(=O)=O | 832 s |
| CSc1ccc(CCNC(=O)c2ccc(CN3CC(=O)N4CCCCC4C3=O)cc2)cc1 (configuration not stated) | 738 s |
| O=C(Cn1c(=O)cc(-c2nc(C3CC3)no2)c2ccccc21)NCc1ccc(F)cc1 | 923 s |
| Cc1cc(C(=O)NCc2ccccn2)c2cc(Br)ccc2n1 | 591 s |
| Cc1nc(NCc2ccco2)sc1C(=O)Nc1ccc(F)c(Cl)c1 | 900 s |
| COC(=O)c1ccc2c(=O)n(-c3cc(C)cc(C)c3)c(N3CCC(C)CC3)nc2c1 | 1420 s |
| COC(=O)c1ccc2c(=O)n(-c3cc(OC)cc(OC)c3)c(N3CCSCC3)nc2c1 | 983 s |
| CS(=O)(=O)N1CC(c2nc(-c3cccnc3)no2)C2(CCOCC2)C1 (configuration not stated) | 630 s |
| O=C(CCC(=O)N1CCSc2ccccc21)N1CCN(c2ccccn2)CC1 | 618 s |
| O=S(=O)(c1ccccc1F)N1CC(F)(F)C[C@H]1CN1CCc2ccccc2C1 | 738 s |
| CCc1nnc2ccc(-c3noc(Cc4ccc(C)cc4)n3)cn12 | 918 s |
| C[C@@]1(O)CCN(Cc2cccc(C#N)c2)C[C@H]1N1CCCC1 | 541 s |
| CCOC(=O)C1=C(N)Oc2c(oc(CO)cc2=O)C1c1cccnc1 (configuration not stated) | 612 s |
| COc1cccc(C2Cn3nnc(-c4nc(-c5ccc(C(F)(F)F)cc5)no4)c3CO2)c1 (configuration not stated) | 1270 s |
| COc1ccc(NC(=O)C2CC(=O)N(c3n[nH]c4cccc(F)c34)C2)cc1Cl (configuration not stated) | 752 s |
| COc1ccc(Cl)cc1S(=O)(=O)N1CCCN(c2ccc(=O)n(-c3ccccc3)n2)CC1 | 906 s |
| CCOc1ccc2nc(Nc3ncc4c(n3)CC(c3cccs3)CC4=O)nc(C)c2c1 (configuration not stated) | 795 s |

| Compound | RP-LC retention time |
| --- | --- |
| CCN1CCN(Cc2nc(Cn3ccn4nc(-c5ccc(C)c(C)c5)cc4c3=O)no2)CC1 | 674 s |
| Cc1csc(-c2cc(S(=O)(=O)Nc3ccc(Cl)cc3F)cn2CC(=O)N2CCCC2)n1 | 944 s |
| Cc1ccc(NC(=O)C2CCN(S(=O)(=O)c3ccc4c(c3)sc(=O)n4C)CC2)cc1C | 913 s |
| CC(C)n1cnc(S(=O)(=O)N2CCC(C(=O)NCc3ccccc3)CC2)c1 | 712 s |
| Cn1cc(NC(=O)N2CCN(c3ccccn3)CC2)c2ccccc2c1=O | 538 s |
| Cc1c(C(=O)NCC(C)C)cnn1-c1ccc(-c2nc(C(C)(C)C)no2)cn1 | 1110 s |
| CN(CC1(C)CCOCC1)C(=O)Cc1c(F)cccc1Cl | 863 s |
| COc1cc(C(=O)Nc2nc(-c3ccc(C)cc3)cs2)c(Br)c(OC)c1OC | 1120 s |
| CCC1CN(C(=O)N2CCC(C(=O)NCCN3CCOCC3)CC2)c2ccccc2O1 (configuration not stated) | 630 s |
| O=C(Nc1ccc(N2CCN(C3CCCC3)C2=O)nc1)c1cccnc1 | 638 s |
| Cc1ccc(C)c(NC(=O)C2(C)Oc3cccnc3N(C)C2=O)c1 (configuration not stated) | 836 s |
| CCN(CC)S(=O)(=O)c1ccc2c(c1)N(CC(=O)NCc1cccc(C)c1)C(=O)C1CCCCN21 (configuration not stated) | 686 s |
| CCn1cnc(S(=O)(=O)N2CCCC(C(=O)N3CCN(c4ncccn4)CC3)C2)c1 (configuration not stated) | 657 s |
| CCCn1cnc2cc(-c3noc(C(C)NC(=O)c4ccco4)n3)ccc21 (configuration not stated) | 629 s |
| O=C(Nc1ccccc1)C1CCCN(c2nccnc2Sc2ccccc2)C1 (configuration not stated) | 1060 s |
| Cn1nnc2c(SCc3c(F)cccc3Cl)ncnc21 | 933 s |
| Cc1cc(C)n(C(CC(=O)O)C(=O)O)n1 (configuration not stated) | 525 s |
| Cc1noc(C)c1CNC(=O)c1cccc(OC(F)(F)F)c1 | 864 s |
| COc1ccc(C)cc1NC(=O)Cn1nc2nc(N3CCCCC3C)ccn2c1=O (configuration not stated) | 840 s |
| COc1ccc(Nc2c(C(=O)N3CCCCCC3)cnc3nc(C)ccc23)cc1 | 638 s |
| Cc1ccc(NC(=O)CNS(=O)(=O)c2cc(-c3noc(C)n3)sc2C)nc1 | 730 s |
